# Measurements published in PubChem BioAssay (NCI).
#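 Tested at 5 concentrations; 48 h exposure; 96-well plates; endpoints linearly interpolated, else capped at highest concentration. GI50 = concentration required for 50% inhibition of growth. TGI is the concentration that stops growth completely.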
# System: RPMI-8226 leukemia
# Assay: DTP human tumour cell line panel, 48 h
Compound,GI50 [µM],TGI [µM]
CCC[CH2][Sn]1([CH2]CCC)[O]CC(CN2CCCC2)[O]1 (centres undefined),7.44,44.1

# System: SF-539 CNS
# Assay: DTP human tumour cell line panel, 48 h
Compound,TGI [µM],GI50 [µM]
Cc1nc(N)sc1C(=O)/C=C\c1ccc2c(c1)OCO2,> 100,–
CN1CCN(CCCOc2ccc3nc(Nc4ccc(Cl)c(C(F)(F)F)c4)ccc3c2)CC1,33.3,13.8
Cn1c(=O)c(C(c2ccc([N+](=O)[O-])cc2)c2c(O)c3ccccc3n(C)c2=O)cc2ccccc21 (centres undefined),> 100,–
CC(C)n1nc(-c2cc3cc(O)ccc3[nH]2)c2c(N)ncnc21,2.18,0.309
CCCCC(O)(c1ccc(Cl)cc1)C(CN1CCOCC1)c1ccc(Cl)cc1 (centres undefined),36.6,17
CCOC(=O)C1=C(C)N(NC(=O)Nc2ccccc2)C(=O)C1=P(c1ccccc1)(c1ccccc1)c1ccccc1,53.3,–
COc1cc(C=C2C(=O)NC(=O)NC2=O)cc(OC)c1OC,> 100,–
Nn1c(=O)n(Cc2ccccc2)n(-c2ccccc2)c1=O,> 100,–
NCC1Nc2ccccc2[C@@H](O)C1O (some centres undefined),> 100,–
OC[C@H]1CCCC1O (some centres undefined),> 100,–
Cc1cccc(N2CCN(C(=S)c3ccc4c(c3)OCO4)CC2)c1,> 100,1.5
O=C1OC(C(O)CO)C(=O)C1=O (centres undefined),5440,2490
COC(=O)C1=CNC=C(C(=O)OC)C1C1=CC(=O)C(C)=CC1=O,29.6,14.9
C=C1C(=O)O[C@H]2[C@H]1CC/C(COC(=O)C(=O)c1cn(Cc3ccccc3)c3ccccc13)=C\CC[C@@]1(C)O[C@@H]21,3.83,1.9
Cc1ccc(C(=O)CN(/C=C/C(=O)C(F)(F)F)c2ccc(S(N)(=O)=O)cc2)cc1,> 100,> 100
COC(C(O)CO)C(O)C(O)C(=O)NNc1ccccc1 (centres undefined),98.3,–

Compound,TGI [µM],GI50 [µM]
NS(=O)(=O)c1ccc(NC2(C(=O)O)CCCC2)cc1,> 100,–
O=C(O)C1OC(n2cc(F)c(=O)[nH]c2=O)CC1O (centres undefined),26.2,–
CC(C)C(Nc1c2ccccc2nc2ccccc12)C(=O)O (centres undefined),> 100,–
N=C1C(c2nc3ccccc3s2)=C(O)CN1c1cc(C(F)(F)F)ccc1Cl,52.9,10
COc1ccccc1CCc1cc(OC)c(OC)c(OC)c1,> 100,–
COc1cc2c(cc1OC)C(CC(=O)NN=C(C)C)NCC2 (centres undefined),> 100,–
COC(=O)/C(=N\Nc1nnc(C)n1N)C(C#N)c1ccc(Cl)cc1 (centres undefined),> 100,–
Cc1cccc(NC(=O)C(=O)C(C(=O)c2ccc3ccccc3c2)C2OC(=O)c3ccccc32)c1C (centres undefined),22.3,–
CCOC(=O)[C@@H](N)CCC(=O)N[C@@H](CSCc1ccccc1)C(=O)N[C@@H](C(=O)OCC)c1ccccc1,33.8,17.6
COc1ccc(Nc2c3ccccc3nc3occc23)cc1,20.8,2.84
CS/C(N)=N\NC(=O)CCC(=O)Nc1ccccc1C(F)(F)F,> 100,–
CC(=O)/C(C)=N/NC(=O)c1ccccc1O,> 10,–
CCCCCCCC/C=C/CCCCCCCC(=O)OC[C@H]1O[C@@H](n2ccc(N)nc2=O)C(F)(F)[C@@H]1O,1.17,< 0.0183
NS(=O)(=O)c1ccc(N=Nc2c(O)[nH]c3ccc(-c4cnco4)cc23)cc1,> 25,> 25
CCC[CH2][Sn]1([CH2]CCC)[O]CC(CN2CCCC2)[O]1 (centres undefined),38.9,16.9

# System: OVCAR-5 ovarian
# Assay: DTP human tumour cell line panel, 48 h
Compound,TGI [µM],GI50 [µM]
Cc1nc(N)sc1C(=O)/C=C\c1ccc2c(c1)OCO2,> 100,–
CN1CCN(CCCOc2ccc3nc(Nc4ccc(Cl)c(C(F)(F)F)c4)ccc3c2)CC1,35.4,17
Cn1c(=O)c(C(c2ccc([N+](=O)[O-])cc2)c2c(O)c3ccccc3n(C)c2=O)cc2ccccc21 (centres undefined),92.7,–
CC(C)n1nc(-c2cc3cc(O)ccc3[nH]2)c2c(N)ncnc21,8.98,0.244
CCCCC(O)(c1ccc(Cl)cc1)C(CN1CCOCC1)c1ccc(Cl)cc1 (centres undefined),23.7,10.7
CCOC(=O)C1=C(C)N(NC(=O)Nc2ccccc2)C(=O)C1=P(c1ccccc1)(c1ccccc1)c1ccccc1,> 100,–
COc1cc(C=C2C(=O)NC(=O)NC2=O)cc(OC)c1OC,> 100,–
Nn1c(=O)n(Cc2ccccc2)n(-c2ccccc2)c1=O,> 100,–
NCC1Nc2ccccc2[C@@H](O)C1O (some centres undefined),> 100,–
OC[C@H]1CCCC1O (some centres undefined),> 100,–
Cc1cccc(N2CCN(C(=S)c3ccc4c(c3)OCO4)CC2)c1,> 100,5.41
O=C1OC(C(O)CO)C(=O)C1=O (centres undefined),4330,2050
COC(=O)C1=CNC=C(C(=O)OC)C1C1=CC(=O)C(C)=CC1=O,31.7,17.7
C=C1C(=O)O[C@H]2[C@H]1CC/C(COC(=O)C(=O)c1cn(Cc3ccccc3)c3ccccc13)=C\CC[C@@]1(C)O[C@@H]21,6.82,2.56
Cc1ccc(C(=O)CN(/C=C/C(=O)C(F)(F)F)c2ccc(S(N)(=O)=O)cc2)cc1,> 100,> 100
COC(C(O)CO)C(O)C(O)C(=O)NNc1ccccc1 (centres undefined),> 100,–

Compound,TGI [µM],GI50 [µM]
NS(=O)(=O)c1ccc(NC2(C(=O)O)CCCC2)cc1,> 100,–
O=C(O)C1OC(n2cc(F)c(=O)[nH]c2=O)CC1O (centres undefined),> 100,–
CC(C)C(Nc1c2ccccc2nc2ccccc12)C(=O)O (centres undefined),> 100,–
N=C1C(c2nc3ccccc3s2)=C(O)CN1c1cc(C(F)(F)F)ccc1Cl,> 100,70.2
COc1ccccc1CCc1cc(OC)c(OC)c(OC)c1,51.3,–
COc1cc2c(cc1OC)C(CC(=O)NN=C(C)C)NCC2 (centres undefined),> 100,–
COC(=O)/C(=N\Nc1nnc(C)n1N)C(C#N)c1ccc(Cl)cc1 (centres undefined),> 100,–
Cc1cccc(NC(=O)C(=O)C(C(=O)c2ccc3ccccc3c2)C2OC(=O)c3ccccc32)c1C (centres undefined),54.7,–
CCOC(=O)[C@@H](N)CCC(=O)N[C@@H](CSCc1ccccc1)C(=O)N[C@@H](C(=O)OCC)c1ccccc1,> 100,> 100
COc1ccc(Nc2c3ccccc3nc3occc23)cc1,> 63.4,13.7
CS/C(N)=N\NC(=O)CCC(=O)Nc1ccccc1C(F)(F)F,> 100,–
CC(=O)/C(C)=N/NC(=O)c1ccccc1O,> 100,> 100
CCCCCCCC/C=C/CCCCCCCC(=O)OC[C@H]1O[C@@H](n2ccc(N)nc2=O)C(F)(F)[C@@H]1O,> 100,0.724
NS(=O)(=O)c1ccc(N=Nc2c(O)[nH]c3ccc(-c4cnco4)cc23)cc1,> 25,> 25
CCC[CH2][Sn]1([CH2]CCC)[O]CC(CN2CCCC2)[O]1 (centres undefined),27.7,12.9

# System: SF-268 CNS
# Assay: DTP human tumour cell line panel, 48 h
Compound,TGI [µM],GI50 [µM]
Cc1nc(N)sc1C(=O)/C=C\c1ccc2c(c1)OCO2,> 100,–
CN1CCN(CCCOc2ccc3nc(Nc4ccc(Cl)c(C(F)(F)F)c4)ccc3c2)CC1,30,14.1
Cn1c(=O)c(C(c2ccc([N+](=O)[O-])cc2)c2c(O)c3ccccc3n(C)c2=O)cc2ccccc21 (centres undefined),> 100,–
CC(C)n1nc(-c2cc3cc(O)ccc3[nH]2)c2c(N)ncnc21,4.78,0.224
CCCCC(O)(c1ccc(Cl)cc1)C(CN1CCOCC1)c1ccc(Cl)cc1 (centres undefined),27.2,12.6
CCOC(=O)C1=C(C)N(NC(=O)Nc2ccccc2)C(=O)C1=P(c1ccccc1)(c1ccccc1)c1ccccc1,> 100,–
COc1cc(C=C2C(=O)NC(=O)NC2=O)cc(OC)c1OC,> 100,–
Nn1c(=O)n(Cc2ccccc2)n(-c2ccccc2)c1=O,> 100,–
NCC1Nc2ccccc2[C@@H](O)C1O (some centres undefined),> 100,–
OC[C@H]1CCCC1O (some centres undefined),> 100,–
Cc1cccc(N2CCN(C(=S)c3ccc4c(c3)OCO4)CC2)c1,> 100,3.85
O=C1OC(C(O)CO)C(=O)C1=O (centres undefined),6600,2720
COC(=O)C1=CNC=C(C(=O)OC)C1C1=CC(=O)C(C)=CC1=O,24.6,9.82
C=C1C(=O)O[C@H]2[C@H]1CC/C(COC(=O)C(=O)c1cn(Cc3ccccc3)c3ccccc13)=C\CC[C@@]1(C)O[C@@H]21,6.3,2.16
